≈ marks a conversion by molar mass, not a printed value.

Data set [1] concerns rats given streptozotocin. In words: Relief of onset of streptozotocin-induced diabetes. The data set is classed as in vivo, rat. The note with it: male Wistar rats, streptozotocin 45 mg/kg i.v.; 20 mg/kg/day oral, 10 days; Mean ± SE. How it is done: Eighteen male Wistar rats weighing about 200 g were divided into 3 groups at random. To the animals of 2 groups, 45 mg/kg of streptozotocin was intravenously administered. One of these groups was regarded as a control group, while the other was regarded as the Compound-6 administration group. To the remaining 1 group which was regarded as the normal control group, a 1/10 M citrate buffer (pH 3.5) […] was intravenously administered. Immediately after the administration of streptozotocin, a suspension of Compound-6 in acacia was orally administered once a day continuously for 10 days in a dose of 20 mg/kg/day. To other groups, an acacia solution alone was administered. After fasting for 6 hours after the final administration, blood was collected from the heart of each animal and the blood glucose level and the blood insulin level were measured. As the data given in Table 7a show, the oral administration of Compound-6 inhibited an increase in the blood glucose level and a decrease in the blood insulin level.
Eighteen male SD rats weighing about 250 g were divided into 3 groups at random. […] To the normal control group and the streptozotocin control group, the acacia solution alone was administered orally. After fasting for 6 hours after the final administration, blood was collected from the heart of each animal and the blood glucose level and the blood insulin level were measured. As the data given in Table 7b show, the oral administration of Compound-5 inhibited an increase in the blood glucose level and a decrease in the blood insulin level.

For data set [2], the system named is rats with adjuvant arthritis. In words: Therapeutic effect on rat adjuvant arthritis. It is filed as in vivo. Particulars: for Inflammation score (5 grades, 1 normal to 5 disabled by swelling in both hind legs): 7 times, day 7. How it is done:
Rats with arthritis employed in Experiment 1 were individuals which suffered from serious arthritis caused by the injection of an adjuvant 45 days ago and thus crawled on forelegs since they could not bend hind legs. Drug effects were evaluated by observing walking, observation with the naked eye of the severity of inflammation in hind legs and the volume of swelling in legs. To 19 SD male rats (weighing about 300 g), Freund's […] adjuvant containing dead tubercle bacillus Aoyama B strain was subcutaneously injected into the tail root to induce arthritis in hind legs. Compound-6 was suspended in a tragacanth gum solution and orally administered at a ratio of 0.5 ml/100 g body weight. Compound-6 was administered to 3 groups including the high-dose model (HM; 50 mg/kg), the medium-dose model (MM; 25 mg/kg) and the low-dose model (LM; 10 mg/kg). Administration was made once a day in morning continuously 7 times. During this period, the hind leg volume was measured at the initiation of the experiment and 2, 4 and 7 days thereafter. The volume change was calculated by referring the volume at the initiation of the experiment as to 100%. On the 7th day, the inflammation conditions in hind legs were evaluated in 5 grades with the naked eye.
Immediately after administration, the three Compound-6 groups were combined and divided again depending on the occurrence of arthritis (i.e., positive and negative groups). Then the data were compared with the data of the control group.

In data set [3] the test system is patients suffered from noninsulin dependent diabetes (type II). In words: Phase II clinical test. The data set is classed as in vivo, human. The note with it: for Fasting blood glucose level, Decrease / Serum total cholesterol level, Decrease / Fasting blood glucose level / Serum total cholesterol level: 360 mg/day; for Fasting blood glucose level / Serum total cholesterol level: n = 30, Mean ± SE; for Boredom No, number of patients / Boredom Yes, number of patients: total 15; for Neuralgia No, number of patients / Neuralgia Yes, number of patients: total 16; for Feebleness No, number of patients / Feebleness Yes, number of patients: total 25. Here is the method:
A phase II clinical test of Compound-6 involving 30 patients suffered from noninsulin dependent diabetes (type II) was carried out. Compound-6 was administered in a daily dose of 6 mg/kg (i.e., administration of two tablets weighing 60 mg after each meal). The administration was continued for 12 weeks.
The facts clarified by this test are as follows.
The 30 patients with type II diabetes were inquired about thirsty and evaluated in 4 grades, namely, (+++) very strongly thirsty; (++) strongly thirsty; (+) thirsty; and (−) not thirsty. […] The treatment ratio amounted to 100%.

The nature of a further data set: Solubility. The data set is classed as physicochemical. How it is done:
Subsequently, Compound-6 was added to the serum to examine the formation of a Schiff base in vitro. […] When Compound-6 dissolved in dimethyl sulfoxide at a high concentration was added in portions to bovine serum, Compound-6 was dissolved in the serum at a ratio of […] (i.e., 1000-fold) and the serum turned yellow depending on the concentration of Compound-6. When an organic solvent (ethanol, acetonitrile, etc.) was added to this yellow serum, the coloring matter was not dissolved in the organic solvent but precipitated as yellow serum protein. The organic solvent layer contained no Compound-6. However, Compound-6 was quantitatively recovered as an acetonitrile solution by adding acetonitrile containing 1% of acetic acid to this yellow precipitate and allowing the mixture to stand for 1 week. In a reaction between a protein and a drug molecule, there has been taken no consideration into the conversion into a novel compound via the formation of a covalent bond between the drug and serum protein in vivo. However, it is obvious that aldehyde group in the benzene ring of the compounds of the present invention and amino group of serum protein form a Schiff base on the basis of the following facts. (1) The compounds of the present invention cannot be detected by any usual methods from the serum of animals to which the compounds have been administered. (2) The compounds of the present invention are released by adding an acidified organic solvent in a large amount to the serum and allowing to stand at room temperature for about 1 week. (3) When added to serum in vitro, the compounds of the present invention are dissolved at a ratio as high as 1000-fold and can be recovered by the same method as used in recovering the compounds of the present invention from the serum of animals to which the compounds have been administered. (4) The serum of animals, to which the compounds have been administered, or serum containing the compounds of the present invention turns into yellow.

Another data set has as its system db/db mice. Particulars: oral; cited from earlier work.
[4] abbreviates: three dose groups combined, total 14.

The term solubility denotes the dissolved amount per volume that the medium holds. In the case of `COc1c(Cl)c(C)c(C=O)c(O)c1C/C=C(C)/C=C/[C@@]1(C)[C@H](C)CCC(=O)[C@@H]1C` [Compound-6, 4-O-methylASC], in data set [1], the Blood glucose worked out at 277.2 ± 52.44 mg/dL and the “Serum IRI” value was determined as 12.3 ± 1.65 mU/ml. The “Inflammation score (5 grades, 1 normal to 5 disabled by swelling in both hind legs)” value (“Inflammation score” for short) in data set [2] (HM group, 50 mg/kg oral once a day) is listed as 2.2. For the same compound, in data set [2] (LM group, 10 mg/kg oral once a day), the “Inflammation score” value is 3.2. Further, in data set [2] (MM group, 25 mg/kg oral once a day), the “Inflammation score” value stood at 2.8. Moreover, the “walking of rats disabled by swelling in joint” value in data set [2] (after 1 week of oral administration) is reported as “could walk again”. In data set [2] (setting [4]), the “Arthritis (+), number of rats” value was found to be 7 and the “Arthritis (−), number of rats” value is listed as 7. Besides, in data set [3] (4th week), the “Fasting blood glucose level, Decrease” value stood at 12.37%; the “Serum total cholesterol level, Decrease” value is recorded as 16.6%; the “Fasting blood glucose level” value is 165 ± 4.3 mg/dL; the “Serum total cholesterol level” value amounted to 265 ± 4.4 mg/dL. Besides, in data set [3] (4th week), the “Boredom No, number of patients” value amounted to 5; the “Boredom Yes, number of patients” value is listed as 10; the “Neuralgia No, number of patients” value stood at 9; the “Neuralgia Yes, number of patients” value turned out to be 7. Further, in data set [3] (4th week), the “Feebleness No, number of patients” value is recorded as 10 and the “Feebleness Yes, number of patients” value is listed as 15. For the same compound, in data set [3] (8th week), the “Fasting blood glucose level, Decrease” value stood at 15.45%; the “Serum total cholesterol level, Decrease” value came to 24.3%; the “Fasting blood glucose level” value amounted to 159 ± 2.4 mg/dL; the “Serum total cholesterol level” value was found to be 240 ± 4.4 mg/dL. For the same compound, in data set [3] (8th week), the “Boredom No, number of patients” value is 13; the “Boredom Yes, number of patients” value came out at 2; the “Neuralgia No, number of patients” value worked out at 10; the “Neuralgia Yes, number of patients” value stood at 6. In data set [3] (8th week), the “Feebleness No, number of patients” value is reported as 19 and the “Feebleness Yes, number of patients” value stood at 6. In data set [3] (12th week), the “Fasting blood glucose level, Decrease” value is given as 18.05%; the “Serum total cholesterol level, Decrease” value came to 27.2%; the “Fasting blood glucose level” value was 154 ± 4.4 mg/dL; the “Serum total cholesterol level” value amounted to 231 ± 4.4 mg/dL. Further, in data set [3] (12th week), the “Boredom No, number of patients” value was 15; the “Boredom Yes, number of patients” value stood at 0; the “Neuralgia No, number of patients” value is 14; the “Neuralgia Yes, number of patients” value was determined as 2. Also, in data set [3] (12th week), the “Feebleness No, number of patients” value is on record as 24 and the “Feebleness Yes, number of patients” value is 1. Besides, the “thirst, treatment ratio” value in data set [3] (30 patients, 12 weeks) was 100%. Besides, the “glucose tolerance (50 g of glucose orally loaded, fasting)” value in data set [3] (compared with the data before the administration) is given as “significantly ameliorated”. Moreover, in data set [3] (human, in vivo), the “blood pressure of patients with hypertension (7) or borderline hypertension (17)” value was “significantly lowered”; the “lowering the serum neutral fat level” value is recorded as “little effect”; the “urinary glucose, urine collected for 24 hours” value is recorded as “significantly reduced”. Further, the dissolved in bovine serum at a ratio of in “Solubility” (added in portions from dimethyl sulfoxide solution) came to 800 µg/mL. Moreover, the “solubility in serum relative to PBS” value in the data set “Solubility” (bovine serum) amounted to 1000 fold. Besides, the solubility in “Solubility” (phosphate buffer saline (PBS)) is 0.8 µg/mL (≈ 1.91 µM).
For `CC(/C=C/[C@@]1(C)[C@H](C)CCC(=O)[C@@H]1C)=C\Cc1c(O)c(C=O)c(C)c(Cl)c1OCC(=O)O` [Compound-14, 4-O-carboxymethylASC], in the data set on db/db mice, the “blood glucose level, serum lipid level and serum insulin level” value is “significantly lowered”.
